According to patent US20190202836A1, “SELECTIVE DUAL INHIBITORS OF PI3 DELTA AND GAMMA PROTEIN KINASES” (Rhizen Pharmaceuticals SA, priority 2014, published 2019):

Tests used:
TNFα = assay: Assay 6A: Cytokine assay in human PBMC, LPS induced TNFα; type: cell-based; conditions: LPS 1 μg/ml, 6 hours, 2-3 independent experiments, read-out: EC50, antigen-induced TNFα
Method: The objective of this study was to assess the inhibitory potential of Compound A1 on antigen-induced cytokine release in human PBMC
• Heparinized human whole blood was diluted 1:1 with PBS, over laid on leukocyte separation medium and centrifuged at 400 g for 40 minutes. • Buffy layer was removed and washed with PBS • 0.15*10^6 of PBMCs were plated in 100 μl per well in RPMI media and incubated for 2 h. • 50 μl of 3× of the compound dilution in media was added and incubated for 15 min. • TNFα—induced with 50 μl of LPS in RPMI such that final concentration was 1 μg/ml. Supernatant was collected at 6 hours. • IL-2-induced with 50 μl of PHA in RPMI such that final concentration was 20 μg/ml. Supernatant was collected at 24 hours. • IL-4-induced with 50 μl of PHA in RPMI such that final concentration was 20 μg/ml.
EC50 values were calculated from 2-3 independent experiments.

Female Wistar rats = assay: Assay 8: Lipopolysaccharide-induced rat air pouch model of inflammation; type: in vivo; conditions: Neutrophil, oral, 1, 3 and 10 mg/kg, pouch fluid 6 h after LPS, read-out: ED50, reduction of neutrophil migration into the rat air pouch
Method: Female Wistar rats (175-200 g) were acclimatized for seven days prior to the start of the experiment. Animals were randomly distributed to various groups based on their body weights. Animals were anaesthetised with ether and subcutaneous air pouches were made by injecting 20 ml of sterile air under the skin in the intra-scapular area (day 0) and maintained with a second 10 ml injection of sterile-filtered air on day 4. On day 6, oral treatment was commenced 1 hour prior to induction of inflammation by s.c. injection of LPS solution on day 6. A volume of 5 ml of LPS solution dissolved in sterile saline (100 μg/kg) was injected into each pouch. Samples of pouch fluid were taken at 6 h after administration of LPS by flushing the pouch with 5 ml of sterile saline and withdrawing 4 ml of fluid. The number of leukocytes present in pouch fluid was determined microscopically using a haemocytometer. Differential cell content was determined by microscopic examination of fluid smears stained with Diff-Quik.

PI3Kγ = PI3Kγ (Homo sapiens, UniProt P48736); assay: Assay 4: fMLP induced CD63 expression in basophils from human whole blood; type: cell-based; parameters: endogenous in cells; host or cells: basophils in human whole blood; conditions: n=1, read-out: IC50 for fMLP (PI3K γ), CD63 positive basophils
Chain of PI3Kγ (P48736 whole entry): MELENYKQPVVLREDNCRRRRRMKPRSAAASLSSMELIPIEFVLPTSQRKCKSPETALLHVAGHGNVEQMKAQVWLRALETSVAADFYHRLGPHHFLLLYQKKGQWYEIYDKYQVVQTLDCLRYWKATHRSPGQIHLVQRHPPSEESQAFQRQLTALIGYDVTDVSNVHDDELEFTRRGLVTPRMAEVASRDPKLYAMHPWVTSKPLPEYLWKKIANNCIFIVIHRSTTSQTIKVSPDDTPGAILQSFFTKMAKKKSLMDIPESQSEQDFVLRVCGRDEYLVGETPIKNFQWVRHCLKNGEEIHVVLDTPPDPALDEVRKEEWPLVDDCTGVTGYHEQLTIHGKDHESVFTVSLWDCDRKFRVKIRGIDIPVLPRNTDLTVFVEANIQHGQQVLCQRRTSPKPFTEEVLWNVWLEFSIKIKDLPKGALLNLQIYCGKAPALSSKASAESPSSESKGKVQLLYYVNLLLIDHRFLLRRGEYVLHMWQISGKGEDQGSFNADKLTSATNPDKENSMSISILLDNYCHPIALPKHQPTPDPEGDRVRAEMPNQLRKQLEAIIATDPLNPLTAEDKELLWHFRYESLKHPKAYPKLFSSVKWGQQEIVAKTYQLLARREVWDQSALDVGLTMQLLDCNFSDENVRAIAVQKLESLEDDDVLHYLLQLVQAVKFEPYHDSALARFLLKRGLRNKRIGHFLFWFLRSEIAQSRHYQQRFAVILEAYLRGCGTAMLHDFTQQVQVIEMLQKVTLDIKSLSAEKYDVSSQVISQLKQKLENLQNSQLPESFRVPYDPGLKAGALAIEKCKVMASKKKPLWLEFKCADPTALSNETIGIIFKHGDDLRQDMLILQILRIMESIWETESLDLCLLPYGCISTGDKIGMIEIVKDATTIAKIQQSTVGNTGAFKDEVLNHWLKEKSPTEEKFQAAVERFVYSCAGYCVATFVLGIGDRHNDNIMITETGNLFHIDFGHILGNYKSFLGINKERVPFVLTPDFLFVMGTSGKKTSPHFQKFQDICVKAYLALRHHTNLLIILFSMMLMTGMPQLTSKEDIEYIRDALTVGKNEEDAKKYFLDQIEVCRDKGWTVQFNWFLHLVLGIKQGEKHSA
Method: PI3K δ and γ signaling in basophils manifested by an alteration of anti-FcεR1 or fMLP induced CD63 expression is a useful pharmacodynamic marker determined using the Flow2CAST® kit (Buhlmann Laboratories, Switzerland). The test procedure involves the following steps: • Mix the anti-coagulated blood sample by inverting the venipuncture tube several times; • Prepare fresh and pyrogen-free 3.5 ml polypropylene or polystyrene tubes suitable for Flow Cytometry measurements; • Add 49 μl of patient's whole blood to each tube; • Add 1 μl of 10% DMSO (background) or test compound (10% DMSO) to the assigned tubes and mix gently. Incubate at room temperature for 15 minutes; • Pipet 50 μl of the Stimulation buffer (background) or anti-FcεRI Ab or fMLP to each tube; • Add 100 μl of Stimulation Buffer to each tube; • Mix gently. Add 20 μl Staining Reagent (1:1 mix of FITC-CD63 and PE-CCR3) to each tube; • Mix gently, cover the tubes and incubate for 15 minutes at 37° C. in a water bath. […]
Percent CD63 positive cells within the gated basophil population were determined in different treatment groups and normalized to vehicle control.

[1] = tested on: human whole blood B-cell proliferation (CD19); assay: Assay 6B: Inhibition of LPS induced CD19 in human whole blood; type: cell-based; conditions: diluted human whole blood, 72 hours, read-out: EC50, inhibition of LPS-induced human whole blood B-cell proliferation (CD19 expression)
Method: The effect of Compound A1 on modulating B-cell receptor (BCR)-activated proliferation of human or mouse B-lymphocytes was determined. CD19 is a protein present on B cells from the earliest recognizable B-lineage cells during development to B-cell blasts but is however lost on maturation to plasma cells. LPS is an endotoxin and a major component of environmental microbes with a potent mitogenic activity on B-cells via the […].
Diluted human whole blood was treated with DMSO or desired concentrations of Compound A1. Samples were induced with LPS 15 minutes after addition of compound and incubated for 72 hours at 37° C. and 5% CO2. Cells positive for CD45 and CD19 were determined by flow cytometry and data are expressed as percentage CD19 positive cells in the total population.

[2] = Plasma protein binding (equilibrium dialysis), monkey; type: in vitro ADME; conditions: pH 7.4, 37° C.
Method: Below is provided the procedure for measuring plasma protein binding (using an equilibrium dialysis method). 745 μL of plasma was transferred into a 2 ml micro centrifuge tube. To that 5 μL of Compound A1 (150 μM) was added. Samples were mixed in the table top vortexer for 2 minutes. 50 μL plasma (n=2) was transferred in a pre-labeled 1.5 mL micro centrifuge tube treated as 0 hour sample.
The remaining 650 μL plasma sample were incubated for 30 minutes at 37° C. in a water bath. After 30 minute incubation, 50 μL plasma (n=2) was removed in a pre-labelled 1.5 mL micro centrifuge tube treated as 0.5 hour sample. 200 μL of the plasma sample (n=2) was transferred into the sample chamber which was indicated by the red ring. The red insert was placed into the base plate and 350 μL of buffer was transferred into the buffer chamber. Plates were incubated at 37° C. at approximately 100 RPM on an orbital shaker or 20 RPM on an up-and-down shaker for 4 hours. 50 μL of post dialysis-sample from the buffer and the plasma chambers were transferred into a pre-labelled micro centrifuged tube. 50 μL of plasma was added to the buffer samples and an equal volume of buffer (KH2PO4 Buffer pH 7.4) to the collected plasma samples. 150 μL of methanol containing internal standard (Tolbutamide 250 ng/ml) was added to precipitate the protein and release compound. […]

COc1ccc(-c2nn([C@@H](C)c3oc4cccc(F)c4c(=O)c3-c3cccc(F)c3)c3ncnc(N)c23)cc1NS(C)(=O)=O [Compound A1, (S)—N-(5-(4-amino-1-(1-(5-fluoro-3-(3-fluorophenyl)-4-oxo-4H-chromen-2-yl)ethyl)-1H-pyrazolo[3,4-d]pyrimidin-3-yl)-2-methoxyphenyl)methanesulfonamide]
EC50 (TNFα): 7.1 nM
ED50 (Female Wistar rats): 2.65 mg/kg
IC50 (PI3Kγ): < 70 nM
EC50 [1]: 118 nM
fraction unbound at 4 h, 1 μM [2]: 0.0529
